Laboratory results published in patent US20080108085A1 (priority 2001, published 2008).
Where two headings read alike, the source gives them in different places.

Tested on: surface-bound mouse prions (RML)
Conditions: for Incubation time s.d. / Sick/total: Table 4, infectious wires treated: sodium hydroxide 1M 1 h, formaldehyde 10% 1 h, guanidinium thiocyanate 4M 16 h, 25° C.; for Infectivity of treated prion-coated wires: sodium hydroxide 1 M 1 h, guanidinium thiocyanate 4 M 16 h, formaldehyde 10%

SMILES: C=O [Formaldehyde]
- Incubation time s.d.: 92 ± 8 days
- Sick/total: 6/6
- Incubation time s.d. (listed as formaldehyde): 92 ± 8 days

SMILES: N#CS.N=C(N)N [Guanidinium thiocyanate]
- Incubation time s.d.: >260 days
- Sick/total: 0/6
- Infectivity of treated prion-coated wires: completely non-infectious

SMILES: [Na+].[OH-] [Sodium hydroxide]
- Incubation time s.d.: >260 days
- Sick/total: 0/6
- Infectivity of treated prion-coated wires: completely non-infectious
